Results as given in US20230384333A1 (priority 2020, published 2023).
Entries after “also recorded” stand apart in the source; their conditions may differ. Where two headings read alike, the source gives them in different places.

Columns and labels:
C57BL/6J mice = experiment: Head-twitch response (HTR) assay; format: in vivo, mouse; settings: i.p., multiple doses
Experimental: The HTR assay was performed as described previously using both male and female C57BL/6J mice (2 male and 2 female=4 total per treatment). The mice were obtained from The Jackson Laboratory (Sacramento, C.A.) and were approximately 8-weeks old at the time of the experiments. Compounds were administered (5 mL/kg, i.p.) using 0.9% saline as the vehicle. After injection, animals were placed into an empty cage (8″×13″×5″) and HTRs were videotaped, scored later by two blinded observers, and the results were averaged (interpersonnel kappas, Pearson correlation coefficient>0.91). Locomotion was assessed using AnyMaze automated tracking software.

psychLight2 [1] = format: cell-based, human
Experimental: Compounds unlikely to bind to the sensor should produce minimal to no response in either agonist or antagonist mode. Therefore, a ligand score was calculated as: […]

psychLight1 = psychLight1 (Homo sapiens, UniProt P28223, E264Q/I181A); experiment: cell-based; format: cell-based
Experimental: HEK293T cells were grown in DMEM, supplemented with fetal bovine serum (FBS) and penicillin-streptomycin. Cells were trans-fected with Effectene according to the manufacturer's instructions. Prior to imaging, cells were washed with Hank's Balanced Salt Solution (HBSS) supplemented with 2 mM MgCl2 and 2 mM CaCl2). All images were collected in HBSS containing Mg^2+ and Ca^2+.
HEK293T cells were plated and transfected concurrently 24 h prior to each experiment using the QIAGEN Effectene Transfection
Dose-response experiments were performed using an Automate Perfusion System. Cells (HEK293T) were grown on 12 mm cover-slips and transfected with psychLight1. The coverslips were then placed into a coverslip holder and washed with 5 mL of HBSS containing 2 mM MgCl2 and 2 mM CaCl2). Cells were perfused first with 5 mL of 0.1% DMSO, then drugs in ascending concentrations from 1 pM to […] were added, with the concentration of DMSO being held constant at 0.10%. […] For the competition studies described in FIG. 19, HEK293T cells were prepared as described above; however, the cells were first exposed to 5 mL of 0.2% DMSO. […] Analysis was performed by taking 3 ROIs on the cell membrane using ImageJ and calculating the mean intensity for each ROI across the time-points. Finally, the DF/F was calculated using the average of the baseline (0.1 or 0.2% DMSO) and the average intensity between each dosage over the average of the baseline.

psychLight2 [2] = experiment: PSYLI2 high-content imaging, agonist mode; format: cell-based, human
Experimental: (§1) High-Content Imaging Experiments. Glass bottom 96-well plates (P96-1.5H-N, Cellvis) were coated with 50 μg/mL of poly-D-lysine (Sigma, P6407-5MG) and 10 μg/mL laminin (Sigma, L2020) overnight in an incubator (37° C., 5% CO2). […] Immediately prior to an experiment, stock solutions of drugs in DMSO (10 mM) were first diluted 1:100 in imaging media distributed across an empty 96-well plate (treatment plate) in triplicates following a randomized plate map. […] Cells grown in a separate 96-well plate (assay plate) were gently washed (3×) with imaging media, and the wells were filled with an appropriate volume of imaging media for the respective experiment (vide infra).
(§2) For agonist mode, […] of imaging media was added to each well of the assay plate. Wells were then imaged on a Lecia DMi8 using Leica Application Suite X (V3.6.0.20104) at 40×(N.A.=0.6) with 5 regions of interest (ROI) taken per well using the default 5 ROI pattern for each well with no bias to location and no overlap of the ROIs (exposure=350 ms, LED power=80%). Next, 20 μL from the treatment plate was transferred to the assay plate for a total 1:1000 dilution of drug (10 μM drug, 0.1% DMSO). […] All final concentrations of drugs were 10 μM (0.1% DMSO) in agonist mode unless stated otherwise. After 5 min of incubation, the same sites were re-imaged using the same settings.
Once imaging was complete, the images were exported, put into a stack, and analyzed using ImageJ Fiji (ver. 1.51v) by using the rectangle function to draw an ROI around the cell membrane (one cell per image) on both the pre- and posttreatment images. ROI sizes within each plate were kept the same and saved to the ROI manager in ImageJ (ctrl+T). Images were then measured using the “multi measure” function in the ROI manager. Measurements were saved and exported. Analysis of the data was done by taking the average of each individual well's ROIs before and after drugs were added. Then the ΔF/F values for each well were calculated using the following equation: […]
as §1, with “Glass” for “High-Content Imaging Experiments. Glass”, “50 µg/mL” for “50 μg/mL”, “10 pg/mL of” for “10 μg/mL”, “were” for “were first”, “in triplicate” for “in triplicates”, “washed 3×” for “washed (3×)”
as §2, with “agonist mode experiments,” for “agonist mode,”, “media were” for “media was”, “20 pL” for “20 μL”, “plate containing” for “plate for”, “a” for “a total”, “(10 pM as the final concentration in” for “(10 μM drug,”
Once imaging was complete, the images were exported, and analyzed using self-written MATLAB script. Script will be deposit on to Github. In short, segmentation was performed on individual images and a mask highlighting the membrane of the HEK293T cells was generated. Pixel intensities were obtained from the mask-highlighted area and exported into Excel. The ΔF/F values for each well were calculated using the following equation: […]

psychLight [3] = format: cell-based, human
[4] = test system: psychLight2 response to electrically evoked 5-HT release; design: species or system mouse
psychLight [5] = experiment: Schild regression analysis in PSYLI2 cells; format: cell-based, human
Experimental: During imaging, […] of imaging media were added to each well of the assay plate. Wells were then imaged on a Lecia DMi8 using Leica Application Suite X (V3.6.0.20104) at 40×(N.A.=0.6) with 5 regions of interest (ROI) taken per well using the default 5 ROI pattern for each well with no bias to location and no overlap of the ROIs (exposure=350 ms, LED power=80%). Next, […] from the treatment plate was transferred to the assay plate for a final 1:1000 dilution of drug. All final drug treatments contained 0.1% DMSO. After 5 min of incubation, the same sites were re-imaged using the same settings. The data analysis method was the same as in agonist and antagonist mode.

[6] = HEK293T cells expressing psychLight
[7] = 10 μM compound, hit limit 1 SD from vehicle

Chain of psychLight1 (P28223 whole entry I181A/E264Q, looked up): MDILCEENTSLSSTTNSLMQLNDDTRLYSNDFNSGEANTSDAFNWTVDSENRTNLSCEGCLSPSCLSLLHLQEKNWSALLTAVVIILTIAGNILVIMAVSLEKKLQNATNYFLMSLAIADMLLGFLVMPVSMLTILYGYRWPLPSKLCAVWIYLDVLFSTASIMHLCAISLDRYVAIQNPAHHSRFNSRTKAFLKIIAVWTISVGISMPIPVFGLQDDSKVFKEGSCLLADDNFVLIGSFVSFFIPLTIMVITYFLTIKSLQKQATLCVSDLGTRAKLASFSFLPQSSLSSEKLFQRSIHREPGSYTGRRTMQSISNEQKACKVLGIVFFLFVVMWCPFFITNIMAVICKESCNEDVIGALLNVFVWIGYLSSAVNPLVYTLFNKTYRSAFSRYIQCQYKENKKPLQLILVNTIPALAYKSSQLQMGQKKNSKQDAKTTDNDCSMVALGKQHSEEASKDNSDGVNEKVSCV

CN(C)CCc1c[nH]c2ccc(Br)cc12 [5-Br-DMT, 5-bromo-N,N-dimethyltryptamine]
head-twitch response (HTR) (C57BL/6J mice): did not induce head-twitches at any dose; also recorded: failed to induce HTRs at any dose | ligand score (psychLight2 [1]): negative ligand score

CN(C)CCc1c[nH]c2ccc(Cl)cc12 [5-Cl-DMT, 5-chloro-N,N-dimethyltryptamine]
head-twitch response (HTR) (C57BL/6J mice): produced robust HTRs | ligand score (psychLight2 [1]): positive ligand scores

CN(C)CCc1c[nH]c2ccc(F)cc12 [5-F-DMT, 5-flouo-N,N-dimethyltryptamine]
head-twitch response (HTR) (C57BL/6J mice): produced robust HTRs | ligand score (psychLight2 [1]): positive ligand scores

NCCc1c[nH]c2ccc(O)cc12 [5-HT, serotonin]
fluorescence intensity change, confocal with psychLight1 (psychLight1): 77.3±2.4% | PSYLI2 response (positive and negative controls) (psychLight2 [2]): 44.8±0.8% | fluorescence intensity change, high content imager with psychLight2 (psychLight2 [2]): 38.2±2.4% | ΔF/F PSYLI2 fluorescence, panel of tryptamines (psychLight2 [2]): 46.3%±1.4%

CN(C)CCc1c[nH]c2ccc(O)cc12 [BUFO, N,N-dimethylserotonin]
ΔF/F PSYLI2 fluorescence, panel of tryptamines (psychLight2 [2]): 22.3%±2.8%

NCCCC(=O)O [GABA, y-aminobutyric acid]
response of psychLight to neurotransmitters (psychLight [3]; [6]): do not respond

O=C(c1ccc(F)cc1)C1CCN(CCn2c(=O)[nH]c3ccccc3c2=O)CC1 [KETSN, ketanserin]
block of 5-HT-induced activation of psychLight (psychLight1): able to block 5-HT-induced activation of psychLight | effect on psychLight fluorescence (psychLight1): neutral antagonists; also recorded: minimal effect on psychLight1 fluorescence or slightly quenched the sensor | fluorescence intensity change, confocal with psychLight1 (psychLight1): −1.7±0.3% | PSYLI2 response (positive and negative controls) (psychLight2 [2]): −12.7±0.5% | fluorescence intensity change, high content imager with psychLight2 (psychLight2 [2]): −3.5±1.6% | block of psychLight fluorescence to electrically evoked 5-HT transients [4]: sufficient to block psychLight fluorescence | peak response to field stimulation of BNST slices ([4]; KETSN 10 μM, N=5 slices): 0±0.36%

CCN(CC)C(=O)N[C@H]1C=C2c3cccc4[nH]cc(c34)C[C@H]2N(C)C1 [LIS, lisuride]
Schild regression (pA2) outcome (psychLight [5]): potent psychLight competitive antagonists

CNCCc1c[nH]c2ccc(O)cc12 [N-5-HT, N-methylserotonin]
ΔF/F PSYLI2 fluorescence, panel of tryptamines (psychLight2 [2]): 24.6%±1.7%

c1ccc(C2(N3CCCCC3)CCCCC2)cc1 [PCP, Phencyclidine]
screen outcome in agonist mode (psychLight2 [2]): did not activate the sensor | ligand score (psychLight2 [1]): ~0

C[C@H](Cc1ccccc1)N(C)C [R-dimethamphetamine, (R)-dimethamphetamine]
screen outcome in agonist mode (psychLight2 [2]; [7]): potential hallucinogenic hits

CN1CCc2cccc3c2[C@H]1Cc1ccc(O)c(O)c1-3 [apomorphine, R-(−)-apomorphine]
Schild regression (pA2) outcome (psychLight [5]): potent psychLight competitive antagonists

CN1[C@@H]2CC[C@H]1C[C@@H](OC(c1ccccc1)c1ccccc1)C2 [benztropine]
Schild regression (pA2) outcome (psychLight [5]): potent psychLight competitive antagonists

NCCc1ccc(O)c(O)c1 [dopamine]
response of psychLight to neurotransmitters (psychLight [3]): do not respond

N[C@@H](CCC(=O)O)C(=O)O [glutamate, L-glutamic acid]
response of psychLight to neurotransmitters (psychLight [3]; [6]): do not respond

CN1C2CCCC1CC(NC(=O)c1nn(C)c3ccccc13)C2 (stereo not drawn) [granisetron]
block of psychLight fluorescence to electrically evoked 5-HT transients [4]: sufficient to block psychLight fluorescence

COC(=O)[C@@H]1C[C@H](OC(C)=O)C(=O)[C@H]2[C@@]1(C)CC[C@H]1C(=O)O[C@H](c3ccoc3)C[C@]21C [salvinorin A]
screen outcome in agonist mode (psychLight2 [2]; [7]): did not activate the sensor | ligand score (psychLight2 [1]): ~0

NCCc1c[nH]c2ccccc12 [tryptamine]
ΔF/F PSYLI2 fluorescence, panel of tryptamines (psychLight2 [2]): robust response

tetrodotoxin citrate
block of psychLight fluorescence to electrically evoked 5-HT transients [4]: sufficient to block psychLight fluorescence
